The results in this text go back to ChEMBL document CHEMBL2321687, “Identification of a novel arylpiperazine scaffold for fatty acid amide hydrolase inhibition with improved drug disposition properties” (Bioorg Med Chem Lett, 2013).

Assay [1] deals with 5-hydroxytryptamine receptor 2B (Homo sapiens) (UniProt P41595). In words: Displacement of [125I](+/-)DOI from human recombinant 5-HT2B receptor expressed in CHO cells at 1 uM. It is filed as cell-based.
The target in assay [2] is Cholecystokinin receptor type A (Homo sapiens) (UniProt P32238). In words: Displacement of [125I]CCK-8 from human recombinant CCKA receptor expressed in CHO cells at 1 uM. The format is cell-based.
Assay [3] concerns the target 5-hydroxytryptamine receptor 2A (Homo sapiens) (UniProt P28223). In words: Displacement of [3H]Ketanserin from human recombinant 5-HT2A receptor expressed in HEK293 cells at 1 uM. The format is cell-based.
The target of assay [4] is Neuropeptide Y receptor type 2 (Homo sapiens) (UniProt P49146). In words: Displacement of [125I]peptideYY from human Y2 receptor in KAN-TS cells. It is filed as cell-based. The following applies: concentration not given here. A general note: In a radioligand displacement assay an active substance lowers the binding of a labelled ligand.
The species named for assay [5] is Rattus norvegicus. Description: Displacement of [3H]GABA from rat GABA in cerebral cortex. The format is tissue-based. The following applies: concentration not given here.
Assay [6] is filed under the species Rattus norvegicus. In words: Displacement of [125I]a-dendrotoxin from rat K+ V channel in cerebral cortex. It is filed as tissue-based. The following applies: concentration not given here.
Assay [7] concerns the target 5-hydroxytryptamine receptor 6 (Homo sapiens) (UniProt P50406). Description: Displacement of [3H]LSD from human recombinant 5-HT6 receptor expressed in CHO cells at 1 uM. The format is cell-based.
For assay [8], the target named is Histamine H1 receptor (Homo sapiens) (UniProt P35367). In words: Displacement of [3H]pyrilamine from human recombinant H1 receptor expressed in HEK293 cells at 1 uM. It is filed as cell-based.
For assay [9], the species on record is Rattus norvegicus. Description: Displacement of [3H]flunitrazepam from rat central BZD receptor in cerebral cortex. The format is tissue-based. The following applies: concentration not given here.
The target in assay [10] is Melatonin receptor type 1A (Homo sapiens) (UniProt P48039). In words: Displacement of [125I]2-iodomelatonin from human recombinant MT1 receptor expressed in CHO cells at 1 uM. The format is cell-based.
In assay [11] the target is Adrenergic receptor alpha-2 (Rattus norvegicus) (UniProt P22086+P19328+P22909). Description: Displacement of [3H]RX821002 from rat alpha2 receptor in cerebral cortex. The following applies: concentration not given here. It is filed as tissue-based.
The target of assay [12] is Kappa-type opioid receptor (Rattus norvegicus) (UniProt P34975). In words: Displacement of [3H]U69593 from rat recombinant kappa opioid receptor expressed in CHO cells at 1 uM. It is filed as cell-based.
For assay [13], the target named is Adenosine receptor A2a (Homo sapiens) (UniProt P29274). Description: Displacement of [3H]CGS21680 from human recombinant adenosine A2A receptor expressed in HEK293 cells at 1 uM. It is filed as cell-based.
Assay [14] deals with Adrenergic receptor alpha-1 (Rattus norvegicus) (UniProt P15823+P23944+P43140). Description: Displacement of [3H]prazosin from rat alpha1 receptor in cerebral cortex. It is filed as tissue-based. The following applies: concentration not given here.
Assay [15] concerns the target 5-hydroxytryptamine receptor 1A (Homo sapiens) (UniProt P08908). Description: Displacement of [3H]8-OH-DPAT from human recombinant 5-HT1A receptor expressed in HEK293 cells at 1 uM. It is filed as cell-based.
The target in assay [16] is Sodium-dependent dopamine transporter (Homo sapiens) (UniProt Q01959). In words: Displacement of [3H]BTCP from human recombinant DA transporter expressed in CHO cells at 1 uM. It is filed as cell-based.
For assay [17], the target named is Cannabinoid receptor 1 (Homo sapiens) (UniProt P21554). Description: Displacement of [3H]CP55940 from human recombinant CB1 receptor expressed in CHO cells at 1 uM. The format is cell-based.
The target in assay [18] is Muscarinic acetylcholine receptor M2 (Homo sapiens) (UniProt P08172). In words: Displacement of [3H]AF-DX384 from human recombinant muscarinic M2 receptor expressed in CHO cells at 1 uM. The format is cell-based.
Assay [19] has as its target Sodium-dependent noradrenaline transporter (Homo sapiens) (UniProt P23975). Description: Displacement of [3H]nisoxetine from human recombinant NE transporter expressed in CHO cells at 1 uM. The format is cell-based.
The target of assay [20] is Adenosine receptor A1 (Homo sapiens) (UniProt P30542). In words: Displacement of [3H]DPCPX from human recombinant adenosine A1 receptor expressed in CHO cells at 1 uM. It is filed as cell-based.
The target of assay [21] is Type-1 angiotensin II receptor (Homo sapiens) (UniProt P30556). Description: Displacement of [125I][Sar1,Ile8]-AT II from human recombinant AT1 receptor expressed in HEK293 cells at 1 uM. The format is cell-based.
For assay [22], the target named is Melanocortin receptor 4 (Homo sapiens) (UniProt P32245). Description: Displacement of [125I]NDP-a-MSH from human recombinant MC4 receptor expressed in CHO cells at 1 uM. It is filed as cell-based.

By inhibition is commonly meant the relative decrease from the control value, in per cent.

Sequence of Melanocortin receptor 4 (Homo sapiens) (P32245 whole entry): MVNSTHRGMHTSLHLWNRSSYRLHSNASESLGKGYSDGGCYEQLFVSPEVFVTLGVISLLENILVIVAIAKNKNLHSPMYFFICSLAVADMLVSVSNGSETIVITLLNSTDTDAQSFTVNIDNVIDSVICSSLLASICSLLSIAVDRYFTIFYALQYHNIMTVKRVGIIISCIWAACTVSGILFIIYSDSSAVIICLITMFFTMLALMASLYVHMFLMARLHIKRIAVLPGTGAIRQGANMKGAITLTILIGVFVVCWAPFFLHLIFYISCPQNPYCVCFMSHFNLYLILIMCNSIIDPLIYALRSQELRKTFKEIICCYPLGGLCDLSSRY
Sequence of 5-hydroxytryptamine receptor 1A (Homo sapiens) (P08908 whole entry): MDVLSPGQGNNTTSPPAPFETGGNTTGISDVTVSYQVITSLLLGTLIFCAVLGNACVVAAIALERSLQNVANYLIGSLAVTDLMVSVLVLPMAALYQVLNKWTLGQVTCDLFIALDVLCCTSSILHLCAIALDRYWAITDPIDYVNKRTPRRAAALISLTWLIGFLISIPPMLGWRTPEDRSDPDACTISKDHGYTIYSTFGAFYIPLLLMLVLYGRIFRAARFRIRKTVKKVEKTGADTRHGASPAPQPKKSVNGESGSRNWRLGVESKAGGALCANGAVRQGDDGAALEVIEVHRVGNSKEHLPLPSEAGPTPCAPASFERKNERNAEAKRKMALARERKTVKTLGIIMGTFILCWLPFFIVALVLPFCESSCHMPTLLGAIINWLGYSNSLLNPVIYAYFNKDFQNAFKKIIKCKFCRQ
Sequence of 5-hydroxytryptamine receptor 2A (Homo sapiens) (P28223 whole entry): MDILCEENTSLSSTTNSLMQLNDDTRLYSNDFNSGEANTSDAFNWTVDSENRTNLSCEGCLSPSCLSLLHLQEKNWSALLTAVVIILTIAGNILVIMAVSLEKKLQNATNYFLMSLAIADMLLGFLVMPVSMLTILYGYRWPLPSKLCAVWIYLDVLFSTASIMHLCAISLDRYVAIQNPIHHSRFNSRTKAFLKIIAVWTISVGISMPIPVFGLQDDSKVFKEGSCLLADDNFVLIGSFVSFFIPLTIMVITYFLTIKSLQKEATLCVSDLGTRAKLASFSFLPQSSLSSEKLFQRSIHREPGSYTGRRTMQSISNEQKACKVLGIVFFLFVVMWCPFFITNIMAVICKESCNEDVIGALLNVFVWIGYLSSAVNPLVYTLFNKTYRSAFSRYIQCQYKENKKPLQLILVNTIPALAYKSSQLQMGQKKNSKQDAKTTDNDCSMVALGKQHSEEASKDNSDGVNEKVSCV
Sequence of Kappa-type opioid receptor (Rattus norvegicus) (P34975 whole entry): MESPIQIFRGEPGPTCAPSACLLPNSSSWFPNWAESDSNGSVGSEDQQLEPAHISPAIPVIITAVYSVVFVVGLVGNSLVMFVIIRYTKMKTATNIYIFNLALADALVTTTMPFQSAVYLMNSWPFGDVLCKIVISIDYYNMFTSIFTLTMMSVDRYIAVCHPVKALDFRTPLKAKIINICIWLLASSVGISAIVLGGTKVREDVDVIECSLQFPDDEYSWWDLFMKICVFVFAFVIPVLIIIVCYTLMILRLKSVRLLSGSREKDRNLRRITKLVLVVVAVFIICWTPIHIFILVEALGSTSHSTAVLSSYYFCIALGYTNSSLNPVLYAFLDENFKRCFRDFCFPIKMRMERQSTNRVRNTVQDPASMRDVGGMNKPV
Sequence of Neuropeptide Y receptor type 2 (Homo sapiens) (P49146 whole entry): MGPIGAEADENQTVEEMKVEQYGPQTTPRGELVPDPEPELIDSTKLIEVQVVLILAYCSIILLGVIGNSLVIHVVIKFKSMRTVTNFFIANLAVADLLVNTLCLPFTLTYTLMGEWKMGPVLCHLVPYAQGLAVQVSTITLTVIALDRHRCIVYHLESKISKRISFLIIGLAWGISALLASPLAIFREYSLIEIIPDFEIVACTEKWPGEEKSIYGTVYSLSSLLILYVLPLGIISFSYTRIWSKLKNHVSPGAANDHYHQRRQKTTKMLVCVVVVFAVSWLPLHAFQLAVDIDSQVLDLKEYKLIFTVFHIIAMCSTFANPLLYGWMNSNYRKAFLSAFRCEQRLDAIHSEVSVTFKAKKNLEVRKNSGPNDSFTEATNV
Sequence of Muscarinic acetylcholine receptor M2 (Homo sapiens) (P08172 whole entry): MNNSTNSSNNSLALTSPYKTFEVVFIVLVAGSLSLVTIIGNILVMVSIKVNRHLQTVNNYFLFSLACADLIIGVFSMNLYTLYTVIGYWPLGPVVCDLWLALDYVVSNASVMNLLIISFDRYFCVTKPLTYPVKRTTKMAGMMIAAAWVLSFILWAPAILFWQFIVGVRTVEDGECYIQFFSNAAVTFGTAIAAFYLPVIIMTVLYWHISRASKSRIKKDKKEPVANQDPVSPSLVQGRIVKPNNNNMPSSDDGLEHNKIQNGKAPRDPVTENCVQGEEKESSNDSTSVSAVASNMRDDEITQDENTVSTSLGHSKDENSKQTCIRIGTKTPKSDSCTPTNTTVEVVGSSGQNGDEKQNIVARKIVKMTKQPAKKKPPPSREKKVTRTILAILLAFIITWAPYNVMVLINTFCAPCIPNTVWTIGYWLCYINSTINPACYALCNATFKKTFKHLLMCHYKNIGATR
Sequence of Histamine H1 receptor (Homo sapiens) (P35367 whole entry): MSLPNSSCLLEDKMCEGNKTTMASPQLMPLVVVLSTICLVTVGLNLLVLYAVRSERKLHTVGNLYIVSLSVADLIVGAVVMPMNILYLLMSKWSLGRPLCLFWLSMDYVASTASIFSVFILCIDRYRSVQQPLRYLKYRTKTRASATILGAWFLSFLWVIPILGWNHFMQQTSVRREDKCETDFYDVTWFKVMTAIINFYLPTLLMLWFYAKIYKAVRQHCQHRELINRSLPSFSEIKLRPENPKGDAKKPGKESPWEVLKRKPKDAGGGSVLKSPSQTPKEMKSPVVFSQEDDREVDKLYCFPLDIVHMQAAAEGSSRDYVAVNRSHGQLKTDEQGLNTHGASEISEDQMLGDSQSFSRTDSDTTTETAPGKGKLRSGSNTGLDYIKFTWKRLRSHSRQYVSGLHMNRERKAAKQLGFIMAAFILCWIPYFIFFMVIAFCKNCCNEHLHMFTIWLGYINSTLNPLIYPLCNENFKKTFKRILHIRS
Sequence of Sodium-dependent noradrenaline transporter (Homo sapiens) (P23975 whole entry): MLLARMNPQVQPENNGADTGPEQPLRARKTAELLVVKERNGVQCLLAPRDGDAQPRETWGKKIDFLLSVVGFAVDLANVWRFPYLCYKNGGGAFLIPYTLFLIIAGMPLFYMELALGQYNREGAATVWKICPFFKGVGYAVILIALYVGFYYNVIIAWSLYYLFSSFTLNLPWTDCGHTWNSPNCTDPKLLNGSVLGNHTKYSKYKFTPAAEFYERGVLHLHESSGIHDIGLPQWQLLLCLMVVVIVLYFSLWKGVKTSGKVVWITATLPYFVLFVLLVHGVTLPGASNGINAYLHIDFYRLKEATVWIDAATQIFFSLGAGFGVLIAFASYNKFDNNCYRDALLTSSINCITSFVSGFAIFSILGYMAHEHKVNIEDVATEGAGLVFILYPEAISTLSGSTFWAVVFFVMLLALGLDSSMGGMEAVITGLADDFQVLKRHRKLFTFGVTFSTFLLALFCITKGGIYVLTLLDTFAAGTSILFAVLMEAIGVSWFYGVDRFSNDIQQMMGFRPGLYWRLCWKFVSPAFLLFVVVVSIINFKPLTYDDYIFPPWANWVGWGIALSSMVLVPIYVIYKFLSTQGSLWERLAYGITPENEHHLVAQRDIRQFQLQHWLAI
Sequence of Cannabinoid receptor 1 (Homo sapiens) (P21554 whole entry): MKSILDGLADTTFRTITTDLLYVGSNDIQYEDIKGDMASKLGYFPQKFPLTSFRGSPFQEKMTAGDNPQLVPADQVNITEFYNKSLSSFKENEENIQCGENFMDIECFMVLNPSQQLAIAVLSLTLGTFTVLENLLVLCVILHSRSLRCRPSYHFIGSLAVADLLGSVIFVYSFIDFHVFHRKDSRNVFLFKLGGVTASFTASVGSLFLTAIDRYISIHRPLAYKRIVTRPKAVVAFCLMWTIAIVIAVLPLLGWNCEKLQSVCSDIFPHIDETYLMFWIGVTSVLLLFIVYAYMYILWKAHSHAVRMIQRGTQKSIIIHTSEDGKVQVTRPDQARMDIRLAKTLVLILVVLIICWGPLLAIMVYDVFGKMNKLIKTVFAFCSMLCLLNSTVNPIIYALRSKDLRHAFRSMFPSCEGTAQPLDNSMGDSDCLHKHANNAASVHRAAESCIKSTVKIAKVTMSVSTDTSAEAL
Sequence of Sodium-dependent dopamine transporter (Homo sapiens) (Q01959 whole entry): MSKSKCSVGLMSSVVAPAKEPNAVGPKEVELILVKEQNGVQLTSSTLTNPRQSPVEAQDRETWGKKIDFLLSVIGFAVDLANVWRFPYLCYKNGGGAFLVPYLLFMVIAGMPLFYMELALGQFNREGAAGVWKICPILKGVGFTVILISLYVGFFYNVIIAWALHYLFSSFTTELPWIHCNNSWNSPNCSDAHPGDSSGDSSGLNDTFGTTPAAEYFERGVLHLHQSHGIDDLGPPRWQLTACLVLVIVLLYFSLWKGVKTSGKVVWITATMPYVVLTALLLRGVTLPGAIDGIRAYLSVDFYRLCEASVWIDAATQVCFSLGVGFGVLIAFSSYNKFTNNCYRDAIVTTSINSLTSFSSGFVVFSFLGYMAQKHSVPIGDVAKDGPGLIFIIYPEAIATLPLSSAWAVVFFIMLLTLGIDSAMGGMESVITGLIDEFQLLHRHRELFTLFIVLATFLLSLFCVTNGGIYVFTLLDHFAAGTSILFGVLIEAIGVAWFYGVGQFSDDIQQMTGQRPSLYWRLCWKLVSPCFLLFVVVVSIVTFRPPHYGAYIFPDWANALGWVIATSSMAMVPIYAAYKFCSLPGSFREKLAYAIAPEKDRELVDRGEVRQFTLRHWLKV

Consider `CCCCCCCOc1ccc(NC(=O)Oc2cccc(N3CCNCC3)c2)cc1`, for which the inhibition in assay [1] is 91%; in [2], 1%; in assay [3] it was 96%; in [4], -9%; in the assay listed under Rattus norvegicus [5] it was 0%; in the assay listed under Rattus norvegicus [6], -5%. The inhibition in assay [7] is 42%; in assay [8] it was 22%; in the assay listed under Rattus norvegicus [9] it was 16%; in [10], -6%; in assay [11] it was 52%; in assay [12], 57%. Further, the inhibition in assay [13] was 3%; in assay [14], 7%; in assay [15] it was 97%; in assay [16] it was 103%; in [17] it was 30%; in assay [18], 23%. Also, the inhibition in assay [19] is 52%; in [20] it was 9%; in [21], -1%; in assay [22], 3%.
